Read-outs that look alike come from different tables or passages of the source.
Experiments:
[1] = test system: human hippocampal stem cells differentiated for 3-4 weeks; test: Neuroprotection against staurosporine-induced neurodegeneration; format: cell-based; settings: 125 nM staurosporine, twenty-four hour, 10 μM agent; for inhibition at 10 µM: Homo sapiens, 24 h
Description: FIG. 7A is a bar graph illustrating an example of a neuroprotection profile of the compounds against staurosporine-induced human hippocampal neurodegeneration as indicated by loss of neurons after twenty-four hour treatment with staurosporine by counting the remaining number of neurons, an increase in […], and an increase in intracellular levels of activated caspase-3/-7 detected by immunostaining. Addition of 125 nM staurosporine solution to human hippocampal stem cells differentiated for 3-4 weeks causes neuronal injury and death. Effect of the […] treatment to inhibit the staurosporine-induced neuronal loss and injury are shown. Each bar represents n=6 wells of the mean+/−the SEM from a single experiment.
Effect of the compound treatment to inhibit the staurosporine-induced neuronal loss and injury are shown. Each bar represents n=6 wells of the mean+/−the SEM from a single experiment.
Agents that promote proliferation and neurogenesis are further evaluated for their ability to inhibit neurodegeneration and apoptosis of the human hippocampal multipotent stem cell-derived neurons. Neurodegeneration may be induced in culture using any number of inducers as known by those skilled in the art. Examples of neurodegenerative inducers include: staurosporine, hypoxia reperfusion, free radicals, glutamate agonists, activated monocyte supernatant, beta amyloid peptides and corticosteroids to name a few. Some of the neurogenic agents inhibit loss of neurons, inhibit caspase activation, inhibit nuclear fragmentation or condensation, inhibit lactate dehydrogenase activity among other effects on neurodegeneration. Using staurosporine as an example, 125 nM of a staurosporine solution is added along with 10 μM of one of the listed neurogenic agents to human hippocampal stem cells differentiated for 3-4 weeks.
A number of neurogenic agents inhibit neuronal loss, caspase-3 activity and/or nuclear fragmentation compared to staurosporine vehicle control. These NSI small molecule agents are all effective at in vitro neurogenesis as determined by methods described. More particularly, human hippocampal stem cells differentiated for a period of 3-4 weeks are treated with an agent for 8-24 hrs in a neuronal maintenance media prior to treatment with an apoptotic or neurodegenerative insults such as staurosporin, TNFα and LPS-stimulated monocyte supernatant and the like. Following the treatment period, media is removed from the treated cells and the cells are fixed and stained. Staining may include Hoechst stain, MAP-2ab (AP-20) antibody staining, active caspase-3 antibody or other measures of neurodegeneration and apoptosis. Instrumentation such as a Molecular Devices fluorescent plate reader or a […] Array Scan II instrument and the like may be used to measure the degeneration and apoptosis.
FIGS. 7A, 7B and 7C illustrate an example of a neuroprotection profile of tested compounds against staurosporine-induced human hippocampal neurodegeneration measured by the remaining number of neurons, an increase in nuclear fragmentation, and an increase in intracellular levels of activated caspase-3/-7 detected by immunostaining, respectively. Human hippocampal stem cells that have been differentiated for 3-4 weeks undergo a twenty-four hour treatment with 125 nM staurosporine solution to cause neuronal injury and death. The effect of the compound treatment to inhibit the staurosporine-induced neuronal loss and injury is shown in each of FIGS. 7A, 7B and 7C. Each bar represents n=6 wells of the mean+/−the SEM from a single experiment.

[2] = test system: human hippocampal stem cells; test: Cell proliferation, Alamar Blue staining of live cells; format: cell-based; settings: seven days of compound treatment; relative to vehicle control
Description: FIG. 1 is a bar graph illustrating an example of a proliferation profile of compounds selected from primary screening. Proliferation is measured after compound treatment for seven days by Alamar Blue staining of live cells per well. Shown are relative values over the vehicle control.
Neural stem cells and progenitor cells differentiate spontaneously in the absence of a mitogen; therefore, undifferentiated mitotic cells are harvested by enzyme treatment to remove residual mitogen, such as basic fibroblast growth factor (bFGF) used in expansion and proliferation of the cells. In one embodiment of the present invention, undifferentiated human hippocampal stem cells (e.g., HH580)/progenitor cells are harvested by enzyme treatment.
The collected cells are seeded for attachment of the cells such as standard 96-well or 384-well plates, pre-coated with extracellular matrix proteins, such as poly-D-lysine and fibronectin (e.g., Biocoat PDL, Fisher). The initial seeding density can be within the range of about 2,000-125,000 cells per well of a 96-well plate. The preferred density, however, is 40,000 cells per well of a 96-well plate which has been optimized for best signal-to-noise ratio as described in pending U.S. patent application Ser. No. 10/728,652. Cell density that is too low retards the initiation of differentiation and results in poor plating efficiency which interferes with the assay. Cell density that is too high leads to inhibition of neurogenesis due to cell-to-cell interaction and paracrine factors which also interfere with the assay. […] For example, for a 384-well plate which has approximately one-fourth of the surface area of a 96-well plate, the initial seeding density should be decreased by one-fourth accordingly.
The cells are passaged and grown for seven days in 15 cm plates in full growth medium according to Neuralstem protocol with 50% of the media changed every other day. Following centrifugation, the call pellet is re-suspended in N2b medium and enough N2b medium is added to the cell suspension to achieve a concentration of […]. The N2b seeding media includes a standard serum-free, growth factor-free, basal media without phenol red that supports healthy neuronal/glial survival. Fibronectin and PBS is completely removed by aspiration from wells of fibronectin-coated 96-well plate(s). 100 μl of N2b medium with or without 2× concentration of screening agents or compounds to be tested are added to each well. Subsequently, 100 μl of the cell suspension is added to each well at a density of 40,000 cells per well. The cell suspension is incubated for two days at 37° C. in the presence of 5% CO2.
On Days 2, 4, and 6 of post-plating, incremental additions of the compounds are made to each well at appropriate concentrations. Therefore, after two days, 100 μl of N2b medium is removed from the wells, and 100 μl of the N2b medium is added. Likewise, on days four and six, 100 μl of N2b medium is removed from the wells and 100 μl of the N2b medium is added, and the cell suspension is again incubated at 37° C. in the presence of 5% CO2.
On day seven, the final day of the culture, a fluorescent dye such as Alamar Blue dye is added to each well. Alamar Blue dye detects metabolic respiration and is a reflection of total cellular activity indicating changes in cell number of neurons. In this regard, 20 μl of Alamar Blue (Biosource International DAL 1025) is added to each well and incubated for two hours at 37° C. in the presence of 5% CO2.
As a preliminary detection of positive activities, the overall immunostaining intensity in each well is read by a fluorescence plate reader. For instance, the fluorescence of the oxidized dye in each well is read by a fluorescent plate reader such as the Molecular Devices Fluorometric Plate Reader. The reader is set on the Read Mode End Point setting at an excitation of 530 nm, an emission of 590 nm, and a cutoff 570 nm. […]

[3] = read-out: Stauro % Inhib Nuclear Frag
[4] = read-out: Stauro % Inhib Caspase-3

SMILES: O=C(NC1CCN(Cc2ccccc2)CC1)c1cccnc1N1CCNCC1 [NSI-143]
- inhibition at 10 µM [1, 3]: 123 ± 77%
- % Prolif (Alamar) [2]: 97 ± 16%

SMILES: CCCCNc1c(C2CCN(C(=O)c3ccc(C#N)cc3)CC2)nc2ccccn12 [NSI-149]
- Stauro % Inhib Neuron Number [1]: 47 ± 15%
- % Prolif (Alamar) [2]: 216 ± 28%

SMILES: COc1ccc(CCNc2ncc(C(N)=O)c(NC3CC3)n2)cc1OC [NSI-130]
- inhibition at 10 µM [1, 3]: 56 ± 17%
- % Prolif (Alamar) [2]: 92 ± 33%

SMILES: O=C(c1cccnc1N1CCNCC1)N1CCN(Cc2ccncc2)CC1 [NSI-142]
- % Prolif (Alamar) [2]: 115 ± 13%

SMILES: CC(C)(C)OC(=O)NCCNC(=O)c1cccnc1NCC1CCCCC1 [NSI-157]
- % Prolif (Alamar) [2]: 218 ± 140%

SMILES: NC(=O)c1cnc(NCc2ccc(Cl)cc2)nc1NCC1CCCCC1 [NSI-144]
- % Prolif (Alamar) [2]: 149 ± 15%

SMILES: O=C(COc1ccccc1)NCc1nc2ccccn2c1NCC1CCCO1 (centres unmarked) [NSI-183]
- % Prolif (Alamar) [2]: 69 ± 18%

SMILES: CS(=O)(=O)N(CC(=O)NCc1nc2ccccn2c1NCc1ccccc1)c1ccccc1 [NSI-185]
- Stauro % Inhib Nuclear Frag [1]: N/N
- % Prolif (Alamar) [2]: 73 ± 26%

SMILES: CCCNc1ncc(C(N)=O)c(NC2CCCC2)n1 [NSI-137]
- inhibition at 10 µM [1, 3]: 87 ± 41%
- % Prolif (Alamar) [2]: 108 ± 28%

SMILES: O=C(NCc1nc2ccccn2c1NCC1CCCO1)Oc1ccccc1 (centres unmarked) [NSI-182]
- inhibition at 10 µM [1, 4]: 108 ± 21%
- inhibition at 10 µM [1, 3]: 85 ± 45%
- % Prolif (Alamar) [2]: 74 ± 8%

SMILES: CC(C)CCNc1ncccc1C(=O)N1CCN(Cc2ccccc2)CC1 [NSI-189]
- Stauro % Inhib Neuron Number [1]: N/N
- % Prolif (Alamar) [2]: 70 ± 21%

SMILES: C=CCNC(=O)c1cccnc1NCc1ccccc1OC [NSI-150]
- % Prolif (Alamar) [2]: 177 ± 44%

SMILES: CS(=O)(=O)N1CCCCC1C(=O)NCc1ccc(Nc2c(C3CC3)nc3ccccn23)cc1 (centres unmarked) [NSI-127]
- % Prolif (Alamar) [2]: 181 ± 14%

SMILES: NC(=O)C1CCCN1C(=O)c1cccnc1NCC1CCCCC1 (centres unmarked) [NSI-158]
- Stauro % Inhib Neuron Number [1]: 22 ± 18%
- inhibition at 10 µM [1, 4]: 48 ± 14%
- % Prolif (Alamar) [2]: 236 ± 79%

SMILES: CCCCNc1c(C2CCN(C(=O)CN(CC(C)C)S(C)(=O)=O)CC2)nc2cnccn12 [NSI-106]
- Stauro % Inhib Neuron Number [1]: 16 ± 19%
- % Prolif (Alamar) [2]: 211 ± 48%

SMILES: CCN(CCNC(=O)c1cccnc1NCCC(C)C)Cc1cccnc1 [NSI-190]
- Stauro % Inhib Neuron Number [1]: 32 ± 1%
- inhibition at 10 µM [1, 3]: 42 ± 30%
- % Prolif (Alamar) [2]: 76 ± 14%

Reference: patent publication US8846914B2, “Compositions to effect neuronal growth” (Neuralstem, Inc., priority 2003, dated 2014)
